We go through 22 compounds from PubChem BioAssay AID248 (DTP/NCI, 2004).

Structures are written as SMILES. Values joined by “and” are separate entries in the source; they are usually repeats but may differ in a detail not shown here. Identical values can stand only once. Inconclusive results and toxic doses are left out.

In the assay the test system is L1210 leukemia ip in BDF1 mice, survival T/C. The assay can be described thus: NCI In Vivo Anticancer Drug Screen. Data for tumor model L1210 Leukemia (intraperitoneal) in B6D2F1 (BDF1) mice. The following applies: endpoint: mean survival time, higher = longer survival. Summed up:
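Transplantable tumor model; survival measured in treated vs vehicle control mice. Value = treated/control.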

Setting [1] is: dose: 100.0 mg/kg/injection, schedule: Q01DX001 (ip), vehicle: saline.
Where [2] appears, read: dose: 400.0 mg/kg/injection, schedule: Q01DX001 (ip), vehicle: saline.
The mark [3] stands for this setting: dose: 100.0 mg/kg/injection, schedule: Q01DX001 (ip), vehicle: carboxymethylcellulose (CMC).
[4] abbreviates: dose: 200.0 mg/kg/injection, schedule: Q01DX001 (ip), vehicle: carboxymethylcellulose (CMC).
[5] abbreviates: dose: 200.0 mg/kg/injection, schedule: Q01DX001 (ip), vehicle: saline.
Where [6] appears, read: dose: 100.0 mg/kg/injection, schedule: Q04DX003 (ip), vehicle: saline.
Where [7] appears, read: dose: 200.0 mg/kg/injection, schedule: Q04DX003 (ip), vehicle: saline.
The mark [8] stands for this setting: dose: 400.0 mg/kg/injection, schedule: Q04DX003 (ip), vehicle: saline.
[9] abbreviates: dose: 100.0 mg/kg/injection, schedule: Q04DX002 (ip), vehicle: Klucel (hydroxypropylcellulose) (HPC).
The mark [10] stands for this setting: dose: 50.0 mg/kg/injection, schedule: Q01DX001 (ip), vehicle: saline.
The mark [11] stands for this setting: dose: 100.0 mg/kg/injection, schedule: Q01DX009 (ip), vehicle: Klucel (hydroxypropylcellulose) (HPC).
Where [12] appears, read: dose: 200.0 mg/kg/injection, schedule: Q01DX009 (ip), vehicle: Klucel (hydroxypropylcellulose) (HPC).
The mark [13] stands for this setting: dose: 400.0 mg/kg/injection, schedule: Q01DX009 (ip), vehicle: Klucel (hydroxypropylcellulose) (HPC).
Setting [14] is: dose: 100.0 mg/kg/injection, schedule: Q01DX001 (ip), vehicle: Klucel (hydroxypropylcellulose) (HPC).
Where [15] appears, read: dose: 200.0 mg/kg/injection, schedule: Q01DX001 (ip), vehicle: Klucel (hydroxypropylcellulose) (HPC).
The mark [16] stands for this setting: dose: 400.0 mg/kg/injection, schedule: Q01DX001 (ip), vehicle: Klucel (hydroxypropylcellulose) (HPC).

Turning to `COC1C(OC(C)=O)CC(=O)OC(C)C/C=C/C=C\C(O)C(C)CC(CC=O)C1OC1OC(C)C(OC2CC(C)(O)C(OC(=O)CC(C)C)C(C)O2)C(N(C)C)C1O` (centres undefined), the T/C is 96 % of control under setting [1] and 90 % of control under setting [2].

In the case of `CN(C)C(=S)Oc1ccccc1[N+](=O)[O-]`, the T/C (dose: 100.0 mg/kg/injection, schedule: Q04DX003 (ip), vehicle: saline with Tween-80) is 100 % of control; the T/C (dose: 200.0 mg/kg/injection, schedule: Q04DX003 (ip), vehicle: saline with Tween-80) was 103 % of control; the T/C (dose: 400.0 mg/kg/injection, schedule: Q04DX003 (ip), vehicle: saline with Tween-80) was 114 % of control.

On to `O=[N+]([O-])c1ccc(N=Nc2ccc3c(c2)-c2ccccc2/C3=C\c2cccc([N+](=O)[O-])c2)cc1`, for which the T/C under setting [3] was 93 % of control; the T/C under setting [4] was 96 % of control; the T/C (dose: 400.0 mg/kg/injection, schedule: Q01DX001 (ip), vehicle: carboxymethylcellulose (CMC)) is 98 % of control.

In the case of `Cc1[nH]nc(C(N)=O)c1N=NN(C)C`, the T/C is, setting by setting: (dose: 12.5 mg/kg/injection, schedule: Q01DX009 (ip), vehicle: saline) 108 % of control; (dose: 25.0 mg/kg/injection, schedule: Q01DX001 (ip), vehicle: saline) 121 % of control; (dose: 25.0 mg/kg/injection, schedule: Q01DX009 (ip), vehicle: saline) 124 % of control; (dose: 50.0 mg/kg/injection, schedule: Q01DX009 (ip), vehicle: saline) 183 % of control; (dose: 75.0 mg/kg/injection, schedule: Q01DX001 (ip), vehicle: saline) 112 % of control and 124 % of control; (dose: 75.0 mg/kg/injection, schedule: Q01DX009 (ip), vehicle: saline) 204 % of control. For the same compound, the T/C is, setting by setting: (dose: 150.0 mg/kg/injection, schedule: Q01DX001 (ip), vehicle: saline) 104 % of control and 216 % of control; (dose: 150.0 mg/kg/injection, schedule: Q01DX009 (ip), vehicle: saline) 186 % of control.

As for `CSCCC(NC(=O)C(C)N)C(=O)O` (centres undefined), the T/C is, setting by setting: under setting [1], 90 % of control; under setting [5], 92 % of control; under setting [2], 101 % of control.

On to `O=C(CNC(=O)Nc1ccc(F)cc1)NNC(=O)Nc1ccc(Cl)c([N+](=O)[O-])c1`, for which the T/C by setting is: (dose: 25.0 mg/kg/injection, schedule: Q01DX009 (ip), vehicle: saline with Tween-80) 94 % of control; (dose: 50.0 mg/kg/injection, schedule: Q01DX009 (ip), vehicle: saline with Tween-80) 93 % of control; (dose: 100.0 mg/kg/injection, schedule: Q01DX009 (ip), vehicle: saline with Tween-80) 102 % of control.

For `CCOC(=O)Cc1ccc(CC(=O)OCC)cc1`, the T/C runs as follows: (dose: 75.0 mg/kg/injection, schedule: Q04DX003 (ip), vehicle: saline) 100 % of control; (dose: 150.0 mg/kg/injection, schedule: Q04DX003 (ip), vehicle: saline) 105 % of control; (dose: 300.0 mg/kg/injection, schedule: Q04DX003 (ip), vehicle: saline) 96 % of control.

As to `C=C(Br)CN1C(=O)c2ccccc2C1=O`, the T/C is, setting by setting: (dose: 100.0 mg/kg/injection, schedule: Q01DX009 (ip), vehicle: saline) 89 % of control; under setting [6], 101 % of control; (dose: 200.0 mg/kg/injection, schedule: Q01DX009 (ip), vehicle: saline) 112 % of control; under setting [7], 104 % of control; (dose: 400.0 mg/kg/injection, schedule: Q01DX009 (ip), vehicle: saline) 87 % of control; under setting [8], 93 % of control.

Turning to `CCN(CC)CC(O)COc1ccccc1C` (centres undefined), the T/C was 101 % of control (dose: 5.0 mg/kg/injection, schedule: Q01DX001 (ip), vehicle: saline); 101 % of control (dose: 10.0 mg/kg/injection, schedule: Q01DX001 (ip), vehicle: saline); 104 % of control (dose: 20.0 mg/kg/injection, schedule: Q01DX001 (ip), vehicle: saline); 104 % of control (dose: 40.0 mg/kg/injection, schedule: Q01DX001 (ip), vehicle: saline); 101 % of control (dose: 80.0 mg/kg/injection, schedule: Q01DX001 (ip), vehicle: saline); 102 % of control under setting [1].

With `CCCCNC(=O)OCc1cnc(C)n1Cc1ccccc1`, the T/C is, setting by setting: (dose: 25.0 mg/kg/injection, schedule: Q01DX009 (ip), vehicle: other) 93 % of control and 107 % of control; under setting [3], 104 % of control; under setting [9], 94 % of control; (dose: 100.0 mg/kg/injection, schedule: Q04DX002 (ip), vehicle: other) 96 % of control and 105 % of control; under setting [4], 108 % of control; (dose: 200.0 mg/kg/injection, schedule: Q04DX002 (ip), vehicle: Klucel (hydroxypropylcellulose) (HPC)) 98 % of control. In addition, the T/C was 93 % of control and 86 % of control (dose: 200.0 mg/kg/injection, schedule: Q04DX002 (ip), vehicle: other); 94 % of control (dose: 400.0 mg/kg/injection, schedule: Q04DX002 (ip), vehicle: Klucel (hydroxypropylcellulose) (HPC)).

As for `O=C(O)c1cc(=O)[nH]c(=O)[nH]1`, the T/C under setting [9] was 100 % of control.

Turning to `O=c1[nH]c2c(cnn2-c2ccccc2)c(=O)n1O`, the T/C is, setting by setting: under setting [10], 97 % of control; under setting [1], 100 % of control.

With `CCC(CC)(c1ccccc1)C(OC(N)=O)c1ccccc1` (centres undefined), the T/C runs as follows: under setting [10], 90 % of control; under setting [1], 101 % of control; under setting [5], 92 % of control; under setting [2], 90 % of control.

In the case of `COCC1OC(n2cc(C)c(=O)n(C)c2=O)CC1OC` (centres undefined), the T/C is, setting by setting: (dose: 50.0 mg/kg/injection, schedule: Q01DX005 (ip), vehicle: saline) 102 % of control; (dose: 100.0 mg/kg/injection, schedule: Q01DX005 (ip), vehicle: saline) 98 % of control; (dose: 200.0 mg/kg/injection, schedule: Q01DX005 (ip), vehicle: saline) 100 % of control.

In the case of `O=C1NC(c2ccccc2)(c2ccccc2)C(=O)N1CCCl`, the T/C was 102 % of control (dose: 100.0 mg/kg/injection, schedule: Q01DX009 (ip), vehicle: acetone); 101 % of control under setting [6]; 101 % of control (dose: 200.0 mg/kg/injection, schedule: Q01DX009 (ip), vehicle: acetone); 95 % of control under setting [7]; 104 % of control (dose: 400.0 mg/kg/injection, schedule: Q01DX009 (ip), vehicle: acetone); 110 % of control under setting [8].

In the case of `O=C(Nc1ccc(Cl)c(Cl)c1)c1ccc(Cl)cc1`, the T/C is 103 % of control (dose: 100.0 mg/kg/injection, schedule: Q04DX002 (ip), vehicle: saline with Tween-80); 95 % of control (dose: 200.0 mg/kg/injection, schedule: Q04DX002 (ip), vehicle: saline with Tween-80); 95 % of control (dose: 400.0 mg/kg/injection, schedule: Q04DX002 (ip), vehicle: saline with Tween-80).

In the case of `Nc1ccc(SCCCCCCSc2ccc(N)cc2)cc1`, the T/C (dose: 100.0 mg/kg/injection, schedule: Q04DX003 (ip), vehicle: other) is 94 % of control.

Consider `CCCCCCCCCCCCCCC(=O)[O][Hg][c]1ccccc1`, for which the T/C (dose: 75.0 mg/kg/injection, schedule: Q01DX001 (ip), vehicle: steriod suspending solution) was 100 % of control.

With `Oc1c(Br)cc(Br)cc1/C=C/NC(=S)NC1CC2CC1C1C=CCC21` (centres undefined), the T/C runs as follows: under setting [11], 105 % of control; under setting [12], 94 % of control; under setting [13], 97 % of control.

Turning to `CCCCCCCCCCCCCCCCC(=O)OCC`, the T/C (dose: 75.0 mg/kg/injection, schedule: Q01DX001 (ip), vehicle: carboxymethylcellulose (CMC)) is 91 % of control.

As for `O=c1[nH]c(/C=C/c2ccccc2)c(S(=O)(=O)N2CCCCC2)c(=O)[nH]1`, the T/C reads like this: under setting [14], 93 % of control; under setting [15], 87 % of control; under setting [16], 93 % of control.

`Cc1ccc(-c2nnc(-c3ccccc3)n2-c2cc(C(=O)O)ccc2C)cc1`: the T/C was 89 % of control under setting [14]; 91 % of control under setting [11]; 91 % of control under setting [15]; 98 % of control under setting [12]; 97 % of control under setting [16]; 98 % of control under setting [13].
